Entries after “also recorded” stand apart in the source; their conditions may differ.
Columns and labels:
CBA/CaJ mice [1] = assay: Noise-induced reduction of ABR wave I amplitude; assay type: in vivo; details: 16 kHz; 106-dB noise; chloroquine 50 mg/kg intraperitoneal, ODN 2088 5 mg/kg subcutaneous
Experimental: (§1) The animal models used in this example and the following examples are as follows. Male CBA/CaJ mice at 4-6 weeks of age were purchased from National Laboratory Animal Center in Taiwan. The mice accessed to water and a regular mouse diet, and were kept at 22±1° C. under a standard 12h:12h light-dark cycle to acclimate for one week before the experiments. The lights were on from 5:00 to 17:00).
(§2) The experimental procedure of noise exposure is as follows. Three awake CBA/CaJ mice in the same group were placed in a sound chamber, with one mouse per stainless steel cage. The sound chamber was fitted with a loudspeaker, driven by an amplifier connected to a CD player. […]
(§3) The experimental procedure of auditory brainstem response (ABR) is as follows. […] Body temperature was monitored and maintained near 37° C. with a heating pad. […] ABRs were measured at 8, 16, and 32 kHz. […] Thresholds were determined for each frequency by reducing the intensity in 10 dB increments and then in 5 dB steps near the threshold until no organized responses were detected. […] ABR thresholds were detected at before noise exposure and one week/three week after noise exposure. […]
To test if TLR7/9 antagonists could protect the auditory nerve against acoustic trauma, we measured the ABR wave I amplitudes at 16 kHz, which is one of the most sensitive frequencies of the auditory spectrum in the mice.

outer hair cell (OHC) = assay: Outer hair cell (OHC) counts in cochlear surface preparations after 106-dB noise; assay type: in vivo, mice; details: basal segment, chloroquine 50 mg/kg intraperitoneal
Experimental: as §1
as §2, with “player. Broadband noise (BBN) with a frequency of 2 to 20 kHz was compiled onto a CD and equalized with software.” for “player.”
To examine if TLR7/9 antagonist could protect the OHC from acoustic trauma, we counted the OHCs in surface preparations after 106-dB noise exposure. […]
The experimental procedure of immunocytochemistry for outer hair cell (OHC) counts is as follows. […] Cell populations in the phalloidin-stained stereociliary bundles and circumferential F-actin rings around the cuticular plate of the OHCs were evaluated using an epifluorescence microscope. […] Each successive 0.25 mm field was evaluated beginning from the apex to the base for counting the number of OHCs. […]

NF-κB = NF-κB immunostaining of the cochlea after noise; assay type: in vivo, mice; details: lateral wall, middle-basal segment; 106-dB noise
Experimental: as §1
(§4) The experimental procedure of noise exposure is as follows. Three awake CBA/CaJ mice in the same group were placed in a sound chamber, with one mouse per stainless steel cage. The sound chamber was fitted with a loudspeaker, driven by an amplifier connected to a CD player. Broadband noise (BBN) with a frequency of 2 to 20 kHz was compiled onto a CD and equalized with software. Sound levels were calibrated with a sound level meter (type 2250; Brtiel & Kja✓r) fitted with a microphone (type 4189; Brtiel & Kja✓r, Na✓rum, Denmark) at the locations of each cage within the sound chamber, before and after exposure to the noise. The control (sham) group was put in the same cage without exposure to noise for 2 hours. An intensity of 106 dB broadband noise was used to produce permanent threshold shifts.
(§5) Chloroquine was dissolved in saline. ODN 2088 was dissolved in endotoxin-free water. The control group was endotoxin-free water. […]

CBA/CaJ mice [2] = assay: Noise-induced auditory brainstem response (ABR) threshold shift; assay type: in vivo; details: 3 weeks after 106-dB noise exposure, chloroquine 50 mg/kg intraperitoneal, ODN 2088 5 mg/kg subcutaneous, four treatments
Experimental: as §1
as §2, with “player. Broadband noise (BBN) with a frequency of 2 to 20 kHz was compiled onto a CD and equalized with software.” for “player.”
as §3

Iba-1±cells = assay: Iba-1± cell (macrophage) infiltration into the cochlea after noise; assay type: in vivo, mice
Experimental: as §1, §4, §5

[3] = test system: cochlear cytokines and chemokines; assay: Quantitative real-time RT-PCR of cochlear cytokine and chemokine gene expression after noise; assay type: in vivo, mice; details: one day after systemic (intraperitoneal) chloroquine treatment; noise exposure; normalized to Actb
Experimental: as §1
as §2, with “player. Broadband noise (BBN) with a frequency of 2 to 20 kHz was compiled onto a CD and equalized with software.” for “player.”
To test if TLR7/9 antagonist could affect the expression of cochlear cytokines and chemokines after noise, we used quantitative real-time reverse transcription polymerase chain reaction (quantitative real-time RT-PCR) to analyze gene expression in the cochlea one day after systemic chloroquine treatment.
The experimental procedure of RNA isolation and quantitative real-time RT-PCR is as follows. […] Real-time quantitative PCR was performed in an ABI 7500 Fast Real-Time System (Applied Biosystems). […]

CCN(CC)CCCC(C)Nc1ccnc2cc(Cl)ccc12 (stereo not drawn) [chloroquine]
noise-induced decrease in ABR wave I amplitude (CBA/CaJ mice [1]): attenuate 106-dB noise-induced wave I amplitude reduction at 16 kHz; also recorded: attenuated the noise-induced decrease in the amplitudes
percentage of OHC loss (outer hair cell (OHC)): decreases noise-induced outer hair cell (OHC) loss; also recorded: attenuated the percentage of OHC loss over this area
immunostaining of NF-κB in the cochlea (NF-κB): attenuates noise-induced nuclear factor kappa-B (NF-κB) immunostaining of the cochlea; also recorded: decreased the immunostaining of NF-κB
noise-induced ABR threshold shift (CBA/CaJ mice [2]): attenuate 106-dB noise-induced auditory threshold shifts
noise-induced ABR threshold shift (CBA/CaJ mice [2]; listed as Chloroquine): decreased the noise-induced ABR thresholds shift
number of Iba-1±signals, quantification of immunofluorescence (Iba-1±cells; each segment of the cochlea): reduces the number of Iba-1macrophage infiltration in the cochlea; also recorded: decreases the number of Iba-1signals in each segment of the cochlea
Iba-1±cell infiltration, immunohistochemistry (Iba-1±cells; lower spiral ligament of the cochlea): attenuates noise-induced infiltration of Iba-1macrophages; also recorded: attenuates the increase in Iba-1cell infiltration
mRNA expression of Tlr9, MyD88, Il-1β, Tnf-α and Irf-7 in the cochlea [3]: decreases noise-induced elevation of cochlear cytokines and chemokines expression; also recorded: attenuated these changes
noise-induced elevation of Ccl2, Ccl4 and Ccl12 expression in the cochlea [3]: decreases noise-induced elevation of cochlear cytokines and chemokines expression; also recorded: decreased the noise-induced elevation
